Measured values published in article PMC6297231 (Nature Communications, 2018).
Where two headings read alike, the source gives them in different places. Where a SMILES comes first, the peptide text is derived from it. The star is where a group is joined. Biotin = O=C1N[C@H]2[C@H](CS[C@H]2CCCCC(=O)*)N1; Ahx = NCCCCCC(=O)O

How the values were obtained:
Mcl-1 [1] = target: T1, Mcl-1 (Homo sapiens, UniProt Q07820); test: TR-FRET binding assay; set-up: N-terminal GST-tagged-Mcl-1 protein from Mcl-1 (E171-G327); made in house; host or cells: E. coli
Method: Percent inhibition was calculated based upon min (control compound) vs. max (DMSO) according to Eq. (2) and the IC50 was derived the smart fit curve (Genedata screener) of % inhibition vs. concentration. Ki values were calculated from Eq.

MOLM-13 leukemic cells = test: MOLM-13 disseminated AML model; assay type: in vivo, mice; conditions: venetoclax 100 mg kg^−1 p.o. daily, AZD5991 60 mg kg^−1 i.v. weekly, after 10 days
Text: MOLM-13: These studies complied with all relevant ethical regulations described in the guidelines established by GV-SOLAS Institutional Animal Care and Use Committee. Female CIEA-NOG mice were purchased from Taconic. Mice between 5 and 8 weeks old were tail vein injected with five million MOLM-13 cells. Treatment started 3 days after implantation. AZD5991, venetoclax, and vehicle were formulated and administered as mentioned above. Bone marrow and peripheral blood were collected 10 days post-treatment initiation, followed by red cell lysis (ACK lysis buffer), washes with FC buffer (PBS + 2% FCS) and cell staining with AquaZombie live/dead stain (cat#423102, Biolegend) containing antibodies against human CD45 (cat#564105, BDBiosciences) and human HLA-ABC (cat#561346, BDBiosciences) or isotype controls (mIgG1 cat#552834, BDBiosciences; mIgG1 cat#561504, BDBiosciences). Samples were washed with FC buffer and data acquired on an Attune NXT cytometer and analyzed using FlowJo software. Gating was performed on single/live/FCS vs. SSC/HLA-ABC vs. hCD45 double positive cells (Supplementary Figure 8).

MV411 = test: Caspase-3/7 activation assay; assay type: cell-based
Method: (§4) Cells were plated at 3000 cells/well in 384-well white plates in corresponding cell growth media. […] Caspase-3/7 activation was subsequently determined using a Caspase-Glo 3/7 Reagent (Promega) and viability was assayed using the CellTiter-Glo Reagent (Promega) as described in manufacturer’s instructions. Dose–response curves for caspase-3/7 activation and viability were plotted and analyzed (including EC50 and GI50 determination) using GraphPad Prism.

Nomo1 = test: Caspase-3/7 activation assay; assay type: cell-based; conditions: Homo sapiens, NOMO-1, 6 h, read-out: 6h caspase EC50; NOMO1, single agent
Method: as §4

MOLM13 = test: Caspase-3/7 activation assay; assay type: cell-based; conditions: Homo sapiens, MOLM-13, 6 h, read-out: 6h caspase EC50; MOLM13, single agent
Method: as §4

ME1 = test: Caspase-3/7 activation assay; assay type: cell-based; conditions: ME-1, 6 h, read-out: 6h caspase EC50; ME1, single agent
Method: as §4

KG1 = test: Caspase-3/7 activation assay; assay type: cell-based; conditions: Homo sapiens, KG-1, 6 h, read-out: 6h caspase EC50; KG1, single agent
Method: as §4

NB4 = test: Caspase-3/7 activation assay; assay type: cell-based; conditions: Homo sapiens, NB-4, 6 h, read-out: 6h caspase EC50; NB4, single agent
Method: as §4

OCIAML3 = test: Caspase-3/7 activation assay; assay type: cell-based; conditions: Homo sapiens, OCI-AML-3, 6 h, read-out: 6h caspase EC50; OCIAML3, single agent
Method: as §4

HEL92.1.7 = test: Caspase-3/7 activation assay; assay type: cell-based; conditions: Homo sapiens, HEL 92.1.7, 6 h, read-out: 6h caspase EC50; HEL9217, single agent
Method: as §4

OCIAML5 = test: Caspase-3/7 activation assay; assay type: cell-based; conditions: Homo sapiens, OCI-AML-5, 6 h, read-out: 6h caspase EC50; OCIAML5, single agent
Method: as §4

OCIM1 = test: Caspase-3/7 activation assay; assay type: cell-based; conditions: OCI-M1, 6 h, read-out: 6h caspase EC50; OCIM1, single agent
Method: as §4

CMK = test: Caspase-3/7 activation assay; assay type: cell-based; conditions: Homo sapiens, 6 h, read-out: 6h caspase EC50; CMK, single agent
Method: as §4

MOLP8 = test: Caspase-3/7 activation assay; assay type: cell-based
Method: as §4

H23 = test: Caspase-3/7 activation assay; assay type: cell-based; conditions: for EC50: caspase activation, Mcl-1-dependent cell line, read-out: NCI-H23, EC50; for NCI-H23 caspase pEC50: mean of log transformed data
Method: as §4

Mcl-1 [2] = target: T1, Mcl-1; test: SPR direct binding assay; set-up: 6His-tagged Mcl-1 protein (E171-G327) was immobilized using NTA capture-coupling
Method: A Biacore T200 instrument (GE Healthcare) was used to monitor binding interactions using a direct binding assay format. 6His-tagged Mcl-1 protein (E171-G327) was immobilized using NTA capture-coupling at a flow rate of 10 μL min^-1 and using an immobilization running buffer containing 10 mM HEPES, 300 mM NaCl, 1 mM TCEP, and 0.05% Tween-20 at 25 °C. […] Approximately 300 response units of Mcl-1 protein (2 μg mL^-1 in immobilization running buffer) were immobilized using the ‘aim for’ function in the T200 Control Software (GE Healthcare). Remaining reactive esters were blocked using a 7 min injection of 1 M ethanolamine. Reference flow cells were prepared without protein. All binding measurements were performed in 10 mM Tris, pH 7.5, 300 mM NaCl, 1 mM TCEP, 1% DMSO, and 0.02% Tween-20 at 25 °C at a flow rate of 30 μL min^-1. Buffer was primed through the instrument overnight to stabilize the surface before subsequent assay steps. Prior to kinetic analysis, solvent calibration and double referencing subtractions were made to eliminate bulk refractive index changes, injection noise, and data drift. Affinity and binding kinetic parameters were determined by global fitting to a 1:1-binding model within the Biacore T200 Evaluation Software (GE Healthcare).

Bcl-2 = target: T2, Bcl-2 (Homo sapiens, UniProt P10415); test: TR-FRET binding assay; conditions: binding to Bcl-2, used in Ki calculations; read-out: Peptide, Kd
T2 construct: C-Terminal 6His-tagged Bcl-2 protein from Bcl-2 (M1-F212); made in house; host or cells: E. coli
Text: (§1) N-terminal GST-tagged-Mcl-1 protein from Mcl-1 (E171-G327), N-terminal GST-tagged Bcl-xL protein from Bcl-xL (1-209), N-Terminal 6His-tagged Bfl-1 protein from Bfl-1 (M1-K151), N-Terminal 6His-tagged Bcl-w protein from Bcl-w (M1-R171), and C-Terminal 6His-tagged Bcl-2 protein from Bcl-2 (M1-F212) were expressed as a tagged fusion protein in E. coli and subsequently purified via Glutathione Sepharose-affinity or Ni-NTA resin purification, and size-exclusion chromatography.
(§2) For TR-FRET, tagged fusion proteins were incubated with a Europium-labeled antibody and a HyLite Fluor 647-labeled peptide, or a biotin-labeled peptide with a streptavidin-labeled ulight fluorophore allowing the assembly of donor and acceptor dye pairs for use in protein-binding assays.
(§3) The reaction final concentrations for Mcl-1 were 1.5 nM GST-Mcl-1, 0.5 nM LanthaScreen Eu tagged GST antibody (LifeTechnologies cat#PV5594), and 4 nM HyLite Fluor 647-labeled Bim peptide C (Hilyte647 C2 Maleimide)-[…]; for Bcl-xl were 2 nM GST-Bcl-xl, 2 nM LanthaScreen Eu-tagged GST antibody, and 10 nM HyLite Fluor 647-labeled BAK peptide C(Hilyte647 C2 Maleimide)-[…]; for Bfl-1 were 4 nM His-Bfl-1, 0.5 nM LanthaScreen Eu-tagged HIS antibody (PerkinElmer cat#AD0205), and 10 nM HyLite Fluor 647-labeled BIM peptide C(Hilyte647-C2-Maleimide)-[…]; for Bcl-2 and Bcl-w: 2 nM His-Bcl-2, or 2 nM His-Bcl-w, with 0.5 nM LanthaScreen Eu-tagged HIS antibody, 10 nM biotin-labeled Bim peptide (Biotin-lc-[…]), and 2.4 nM a streptavidin labeled ULight Fluorophore (PerkinElmer cat#TRF0102-D). Reactions were incubated at 24 °C for 120–180 min before reading on a Tecan (InfiniteM1000 spectrofluorometer) with excitation at 340 nm and emission at […] and 665 nm. Ratio of fluorescent emission intensity at 665–620 nm was calculated for each reaction (equation 1). Percent inhibition was calculated based upon min (control compound) vs. max (DMSO) according to Eq. (2) and the IC50 was derived the smart fit curve (Genedata screener) of % inhibition vs. concentration. Ki values were calculated from Eq. […]

Bcl-w = target: T3, Bcl-w (Homo sapiens, UniProt Q92843); test: TR-FRET binding assay; conditions: binding to Bcl-w, used in Ki calculations; read-out: Peptide, Kd
T3 construct: N-Terminal 6His-tagged Bcl-w protein from Bcl-w (M1-R171); made in house; host or cells: E. coli
T3 sequence (Q92843 1-171): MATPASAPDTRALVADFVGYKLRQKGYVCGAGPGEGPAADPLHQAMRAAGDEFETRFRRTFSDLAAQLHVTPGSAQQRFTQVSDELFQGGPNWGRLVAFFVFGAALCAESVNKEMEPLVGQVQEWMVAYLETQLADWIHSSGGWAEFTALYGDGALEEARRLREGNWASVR
Text: as §1, §2, §3

[3] = caspase activation, Mcl-1-dependent cell line, read-out: MOLP-8, EC50
[4] = caspase activation, Mcl-1-dependent cell line, read-out: MV4-11, EC50

T1 sequence (Q07820 171-327): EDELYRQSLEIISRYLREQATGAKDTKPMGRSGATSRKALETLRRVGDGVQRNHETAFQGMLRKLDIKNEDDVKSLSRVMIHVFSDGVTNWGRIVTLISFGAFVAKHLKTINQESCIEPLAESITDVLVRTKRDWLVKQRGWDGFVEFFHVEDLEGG
T2 sequence (P10415 1-212): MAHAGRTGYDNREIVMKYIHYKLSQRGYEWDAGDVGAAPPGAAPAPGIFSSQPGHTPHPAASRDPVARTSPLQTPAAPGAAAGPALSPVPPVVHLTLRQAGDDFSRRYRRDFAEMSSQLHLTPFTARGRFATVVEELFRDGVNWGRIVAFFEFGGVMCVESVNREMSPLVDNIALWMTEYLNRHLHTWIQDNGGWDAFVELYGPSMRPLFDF

Row | SMILES | IC50 (Mcl-1 [1]; read-out: Mcl-1 FRET, IC50) [nM] | EC50 (MOLP8; [3]) [nM] | MOLP-8 caspase pEC50 (MOLP8; mean of log transformed data) | EC50 (MV411; [4]) [nM] | MV4-11 caspase pEC50 (MV411; mean of log transformed data) | EC50 (H23) [nM] | NCI-H23 caspase pEC50 (H23) | Kd (Mcl-1 [2]; read-out: Mcl-1 SPR, Kd) [nM] | further results
1 | Cc1ccccc1-c1cccc2c(CCCOc3cccc4c3CCCC4)c(C(=O)O)[nH]c12 [Compound 1, reference compound] | 1100 | – | – | – | – | – | – | – | –
2 | CC1(C)CCC(CN2CCN(c3ccc(C(=O)NS(=O)(=O)c4ccc(NCC5CCOCC5)c([N+](=O)[O-])c4)c(Oc4cnc5[nH]ccc5c4)c3)CC2)=C(c2ccc(Cl)cc2)C1 [venetoclax, reference compound] | – | – | – | – | – | – | – | – | percentage of HLA-ABC+ hCD45+ leukemic cells in peripheral blood vs. vehicle (MOLM-13 leukemic cells): significantly reduced; EC50 (MV411; Homo sapiens, MV4-11, 6 h, read-out: 6h caspase EC50, MV411, single agent): 45.2 nM; EC50 (Nomo1): > 333 nM; EC50 (MOLM13): 9.66 nM; EC50 (ME1): 10.2 nM; EC50 (KG1): 269 nM; EC50 (NB4): 27.5 nM; EC50 (OCIAML3): > 333 nM; EC50 (HEL92.1.7): > 333 nM; EC50 (OCIAML5): 73 nM; EC50 (OCIM1): > 333 nM; EC50 (CMK): > 333 nM
3 | Cc1nn(C)c(COc2ccc(N3CCN(S(=O)(=O)N(C)C)CC3)cc2)c1-c1cccc2c(CCCOc3cccc4ccccc34)c(C(=O)O)n(CCN3CCOCC3)c12 [Compound 8, A-1210477, reference compound] | 6 | 3550 | 5.45 | 1860 | 5.73 | 20900 | 4.68 | 11 | MCL1 SPR pKd (Mcl-1 [2]; mean of log transformed data): 7.94; MCL1 FRET pIC50 (Mcl-1 [1]; mean of log transformed data): 8.20
4 | CC[C@H](C)[C@H](NC(=O)[C@H](CCCNC(=N)N)NC(=O)[C@H](CCCNC(=N)N)NC(=O)[C@H](CC(C)C)NC(=O)[C@H](CCC(=O)O)NC(=O)[C@H](CC(N)=O)NC(=O)[C@H](C)NC(=O)[C@@H](NC(=O)[C@H](Cc1c[nH]c2ccccc12)NC(=O)[C@@H](NC(=O)[C@H](CCC(=O)O)NC(=O)[C@@H]1CCCN1C(=O)[C@H](CCCNC(=N)N)NC(=O)[C@H](CCSC)NC(=O)CNC(=O)CNC(=O)CCCCCNC(=O)CCCC[C@@H]1SC[C@@H]2NC(=O)N[C@@H]21)[C@@H](C)CC)[C@@H](C)CC)C(=O)NCC(=O)N[C@@H](CC(=O)O)C(=O)N[C@@H](CCC(=O)O)C(=O)N[C@@H](Cc1ccccc1)C(=O)N[C@@H](CC(N)=O)C(=O)N[C@@H](C)C(=O)O [Biotin Bim peptide(biotin-Ic-), reference compound] ({Biotin-Ahx}-GGMRPEIWIANELRRIGDEFNA-OH) | – | – | – | – | – | – | – | – | Kd (Bcl-2): 5 nM; Kd (Bcl-w): 10 nM
5 | Cc1c(-c2cccc3c(CCCOc4cccc5ccccc45)c(C(=O)O)[nH]c23)c(CSCc2nn(C)c(C)c2-c2cccc3c(CCCOc4cccc5ccccc45)c(C(=O)O)[nH]c23)nn1C [Compound 3] | 770 | – | – | – | – | – | – | – | –
6 | Cc1c2c(nn1C)CSCc1cc(n(C)n1)CSc1cc(c3ccccc3c1)OCCCc1c(C(=O)O)n(C)c3c-2c(Cl)ccc13 (atropisomer, axis not shown; (Sa)) [(Sa)-7] | – | > 16000 | < 4.8 | > 16000 | < 4.8 | > 25000 | < 4.6 | – | –
7 | Cc1c2c(nn1C)CSCc1cc(n(C)n1)CSc1cc(c3ccccc3c1)OCCCc1c(C(=O)O)[nH]c3c-2cccc13 [Compound 5] | 19 | – | – | – | – | – | – | 47 | EC50 (MOLP8; Homo sapiens, MOLP-8, caspase activation, Mcl-1-dependent cell line, read-out: MOLP-8, EC50): > 31500 nM; EC50 (MOLP8; Homo sapiens, MOLP-8, mean of log transformed data, read-out: MOLP-8 caspase pEC50 (converted)): > 31600 nM; EC50 (MV411; Homo sapiens, MV4-11, caspase activation, Mcl-1-dependent cell line, read-out: MV4-11, EC50): > 31500 nM; EC50 (MV411; Homo sapiens, MV4-11, mean of log transformed data, read-out: MV4-11 caspase pEC50 (converted)): > 31600 nM; Kd (Mcl-1 [2]; mean of log transformed data, read-out: MCL1 SPR pKd (converted)): 46.8 nM; IC50 (Mcl-1 [1]; mean of log transformed data, read-out: MCL1 FRET pIC50 (converted)): 19.1 nM
8 | Cc1c2c(nn1C)CSCc1cc(n(C)n1)CSc1cc(c3ccccc3c1)OCCCc1c(C(=O)O)n(C)c3c-2cccc13 [Compound 6] | 4 | 660 | 6.18 | 1050 | 5.98 | 5750 | 5.24 | 8 | MCL1 SPR pKd (Mcl-1 [2]; mean of log transformed data): 8.10; MCL1 FRET pIC50 (Mcl-1 [1]; mean of log transformed data): 8.37
